Laboratory results taken from US9422307B2, “2,4,7-substituted thieno[3,2-d]pyrimidine compounds as protein kinase inhibitors” (KOREA INSTITUTE OF SCIENCE AND TECHNOLOGY, priority 2009, dated 2016).

What was measured:
[1] = biological target: Full sequence FAK (Homo sapiens (Human), UniProt Q05397); assay: Measurement of FAK kinase activity (ULight-LANCE assay); type: biochemical; conditions: TR-FRET, 3 nM FAK, 10 μM ATP; read-out: FAK inhibition activity (IC50)
Description: ULight-poly GT (PerkinElmer #TRF0100-D), Eu-anti-phospho-Tyr (PT66) (PerkinElmer #AD0068) and Lance detection buffer (PerkinElmer #CR-97-100) were purchased from PerkinElmer. […] 4× ULight-poly GT was adjusted to a final concentration of 100 nM. ATP (Sigma #A2383) was adjusted to a final concentration of 10 μM and in 2.5 μL aliquots. The test compound was sequentially diluted at 12 concentrations and treated with an amount of 0.5 μL. After shaking well and allowing to react at room temperature for 60 minutes, 5 μL of ethylenediaminetetraacetic acid (EDTA, final concentration 40 mM) diluted in Lance detection buffer (Lance detection buffer) was added and the mixture was left at room temperature for 5 minutes to stop the reaction. After adding 4× Eu-anti-phospho-Tyr (PT66) phosphorylated antibody diluted to a final concentration of 2 nM in detection buffer with an amount of 5 μL, and reaction was performed at room temperature for 60 minutes.

[2] = tested on: HT-29 human colon adenocarcinoma cells; assay: Inhibition of proliferation of HT-29 human colon adenocarcinoma cells (MTT assay); type: cell-based; conditions: HT-29 cells, read-out: Inhibition activity against proliferation of the HT-29 cells (GI50)
Description: HT-29 human colon adenocarcinoma cells were cultured in DMEM [10% FBS, 1% penicillin/streptomycin] at 37° C. in the presence of 5% CO2. The cultured HT-29 cells were harvested with 0.05% trypsin-0.02% EDTA and seeded in a 96-well plate at 5×10^3 cells per well.
3-(4,5-Dimethylthiazol-2-yl)-2,5-diphenyltetrazolium bromide (MTT) assay (CellTiter 96 Assay, Promega) was used to measure cell viability. After adding 15 μL of a dye per well and culturing for 2 hours, the cells were treated with 100 μL of a stop solution and absorbance was measured 24 hours later. The test compound was treated a day after plating. The test compound had been sequentially diluted at 12 concentrations from a 10 mM stock solution using sterilized dimethylsulfoxide (DMSO) and treated with an amount of 0.5 μL. Absorbance at 590 nm was recorded using EnVision2103, and GI50 value was calculated using GraphPad Prism 4.0 software.

[3] = tested on: tumor; conditions: concurrent administration with docetaxel, animal model, P values<0.01; cited from earlier work
[4] = tested on: prostate cancer PC-3, breast cancer BT-474, colon LoVo, lung cancer NCI-H460, glioblastoma U-87 MG and pancreatic cancer BxPC-3 cells; conditions: cited from earlier work

Full sequence FAK, sequence (Q05397 whole entry): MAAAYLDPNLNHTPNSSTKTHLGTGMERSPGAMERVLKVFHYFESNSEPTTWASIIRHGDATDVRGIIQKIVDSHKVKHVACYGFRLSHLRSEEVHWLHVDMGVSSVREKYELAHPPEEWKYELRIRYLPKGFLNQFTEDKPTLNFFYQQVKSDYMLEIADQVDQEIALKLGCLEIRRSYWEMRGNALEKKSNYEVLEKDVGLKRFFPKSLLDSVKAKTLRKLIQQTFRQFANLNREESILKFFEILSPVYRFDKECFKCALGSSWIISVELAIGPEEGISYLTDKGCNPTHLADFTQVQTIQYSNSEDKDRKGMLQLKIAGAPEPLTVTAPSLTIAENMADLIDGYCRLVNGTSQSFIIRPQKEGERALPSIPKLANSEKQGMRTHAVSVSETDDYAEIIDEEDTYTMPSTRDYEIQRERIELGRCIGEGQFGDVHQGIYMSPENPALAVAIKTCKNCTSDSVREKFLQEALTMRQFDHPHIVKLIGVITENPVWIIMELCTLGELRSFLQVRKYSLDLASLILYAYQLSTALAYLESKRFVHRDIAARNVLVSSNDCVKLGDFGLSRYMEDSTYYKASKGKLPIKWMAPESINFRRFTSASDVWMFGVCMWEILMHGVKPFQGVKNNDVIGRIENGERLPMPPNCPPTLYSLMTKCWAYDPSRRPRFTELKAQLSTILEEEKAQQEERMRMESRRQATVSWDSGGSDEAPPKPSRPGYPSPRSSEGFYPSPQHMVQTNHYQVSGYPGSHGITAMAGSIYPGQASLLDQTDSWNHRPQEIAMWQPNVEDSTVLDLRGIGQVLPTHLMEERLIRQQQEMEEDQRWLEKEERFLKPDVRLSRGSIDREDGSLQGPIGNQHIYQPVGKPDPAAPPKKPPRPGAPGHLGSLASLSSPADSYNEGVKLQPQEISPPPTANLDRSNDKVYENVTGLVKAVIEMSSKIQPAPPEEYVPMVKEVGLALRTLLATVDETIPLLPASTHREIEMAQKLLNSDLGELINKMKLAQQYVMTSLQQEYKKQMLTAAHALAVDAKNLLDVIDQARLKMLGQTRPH

IC50 [1]	GI50 [2]	SMILES	tumor reduction [3]	inhibition of tumor growth or tumor degeneration ([4]; human tumor xenograft, 25-100 mg/kg p.o.)	toxicity observed ([4]; in vivo)
< 10 µM	< 10 µM	C=Cc1csc2c(NCc3ccccc3)nc(NCCN3CCOCC3)nc12 [Example 46, N^4-benzyl-N^2-(2-morpholinoethyl)-7-vinylthieno[3,2-d]pyrimidin-2,4-diamine]			
< 10 µM	< 10 µM	CNC(=O)c1cccc(-c2csc3c(N)nc(Nc4ccc(N5CCC(N6CCCC6)CC5)cc4)nc23)c1 [Example 7, 3-(4-amino-2-(4-(4-(pyrrolidin-1-yl)piperidin-1-yl)phenylamino)thieno[3,2-d]pyrimidin-7-yl)-N-methylbenzamide]			
< 10 µM	< 10 µM	C=Cc1csc2c(N[C@H](C)c3ccccc3)nc(NCCN3CCOCC3)nc12 [Example 47, (R)—N^2-(2-morpholinoethyl)-N^4-(1-phenylethyl)-7-vinylthieno[3,2-d]pyrimidin-2,4-diamine]			
< 10 µM	< 10 µM	C#Cc1csc2c(N[C@H](C)c3ccccc3)nc(NC[C@H](C)O)nc12 [Example 45, (S)-1-(7-ethynyl-4-((R)-1-phenylethylamino)thieno[3,2-d]pyrimidin-2-ylamino)propan-2-ol]			
< 10 µM	< 10 µM	CCc1csc2c(NCc3ccccc3)nc(NCCN3CCOCC3)nc12 [Example 48, N^4-benzyl-7-ethyl-N^2-(2-morpholinoethyl)thieno[3,2-d]pyrimidin-2,4-diamine]			
	< 10 µM	C#Cc1csc2c(NCc3ccccc3)nc(NC[C@H](C)O)nc12 [Example 44, (S)-1-(4-(benzylamino)-7-ethynylthieno[3,2-d]pyrimidin-2-ylamino)propan-2-ol]			
< 10 µM	< 10 µM	CCS(=O)(=O)Nc1cccc(-c2csc3c(N)nc(Nc4cc(OC)c(OC)c(OC)c4)nc23)c1 [Example 17, N-(3-(4-amino-2-(3,4,5-trimethoxyphenylamino)thieno[3,2-d]pyrimidin-7-yl)phenyl)ethanesulfonamide]			
< 10 µM	< 10 µM	CNS(=O)(=O)c1cccc(-c2csc3c(N)nc(Nc4cc(OC)c(OC)c(OC)c4)nc23)c1 [Example 26, 3-(4-amino-2-(3,4,5-trimethoxyphenylamino)thieno[3,2-d]pyrimidin-7-yl)-N-methylbenzenesulfonamide]			
< 10 µM	< 10 µM	CCN1CCN(c2cccc(Nc3nc(N)c4scc(-c5cnc6ccccc6c5)c4n3)c2)CC1 [Example 43, N^2-(3-(4-ethylpiperazin-1-yl)phenyl)-7-(quinolin-3-yl)thieno[3,2-d]pyrimidin-2,4-diamine]			
		CNC(=O)c1ccccc1Nc1nc(Nc2ccc(N3CCOCC3)cc2OC)ncc1Cl [TAE226]	85-97%		
< 10 µM	< 10 µM	Nc1nc(Nc2ccc(N3CCOCC3)nc2)nc2c(-c3cnc4ccccc4c3)csc12 [Example 42, N^2-(6-morpholinopyridin-3-yl)-7-(quinolin-3-yl)thieno[3,2-d]pyrimidin-2,4-diamine]			
< 10 µM	< 10 µM	CCN1CCN(c2ccc(Nc3nc(N)c4scc(-c5cccc(NS(C)(=O)=O)c5)c4n3)cn2)CC1 [Example 27, N-(3-(4-amino-2-(6-(4-ethylpiperazin-1-yl)pyridin-3-ylamino)thieno[3,2-d]pyrimidin-7-yl)phenyl)methanesulfonamide]			
< 10 µM	< 10 µM	CCN1CCN(c2ccc(Nc3nc(N)c4scc(-c5cnc6ccccc6c5)c4n3)cc2)CC1 [Example 41, N^2-(4-(4-ethylpiperazin-1-yl)phenyl)-7-(quinolin-3-yl)thieno[3,2-d]pyrimidin-2,4-amine]			
< 10 µM	< 10 µM	CCN1CCN(c2ccc(Nc3nc(N)c4scc(-c5cnc6ccccc6c5)c4n3)cn2)CC1 [Example 39, N^2-(6-(4-ethylpiperazin-1-yl)pyridin-3-yl)-7-(quinolin-3-yl)thieno[3,2-d]pyrimidin-2,4-diamine]			
< 10 µM	< 10 µM	CNC(=O)c1cccc(-c2csc3c(N)nc(Nc4ccc(N5CCOCC5)nc4)nc23)c1 [Example 2, 3-(4-amino-2-(6-morpholinopyridin-3-ylamino)thieno[3,2-d]pyrimidin-7-yl)-N-methylbenzamide]			
< 10 µM	< 10 µM	CNC(=O)c1cccc(-c2csc3c(N)nc(Nc4ccc(N5CCC(O)CC5)cc4)nc23)c1 [Example 3, 3-(4-amino-2-(4-(4-hydroxypiperidin-1-yl)phenylamino)thieno[3,2-d]pyrimidin-7-yl)-N-methylbenzamide]			
		CN(c1ncccc1CNc1nc(Nc2ccc3c(c2)CC(=O)N3)ncc1C(F)(F)F)S(C)(=O)=O [PF-562271]		42-90%	No special toxicity has been observed
< 10 µM	< 10 µM	CCN1CCN(c2ccc(Nc3nc(N)c4scc(-c5cccc(C(=O)NC)c5)c4n3)cc2)CC1 [Example 6, 3-(4-amino-2-(4-(4-ethylpiperazin-1-yl)phenylamino)thieno[3,2-d]pyrimidin-7-yl)-N-methylbenzamide]			
< 10 µM	< 10 µM	COc1cc(Nc2nc(N)c3scc(-c4cccc(NC(=O)C5CC5)c4)c3n2)cc(OC)c1OC [Example 15, N-(3-(4-amino-2-(3,4,5-trimethoxyphenylamino)thieno[3,2-d]pyrimidin-7-yl)phenyl)cyclopropanecarboxamide]			
